Here are results for 4 compounds from ChEMBL document CHEMBL3120142 (J Med Chem, 2014).

Assay [1] has as its system Influenza A virus. Kind of assay: microbe, parasite or virus in culture. The following applies: A/Berlin/55/08(H1N1), MDCK, 48 h.
The test system of assay [2] is Influenza A virus. As to conditions: mdck.

On to `CCC(CC)O[C@@H]1C=C(C(=O)O)C[C@H](NC(=N)N)[C@H]1NC(C)=O`, for which the response in the assay on Influenza A virus [1] was half-maximal at 3.31 µM (EC50).

`CCC(CC)O[C@@H]1C=C(C(=O)O)C[C@H](NC(C)=N)[C@H]1NC(C)=O` gave an EC50 with Influenza A virus [1] of 4.82 µM.

`CCC(CC)O[C@@H]1C=C(C(=O)O)C[C@H](N)[C@H]1NC(C)=O` [OSELTAMIVIR CARBOXYLATE] yielded an EC50 in the assay with Influenza A virus [1] of more than 100 µM.

In the assay with Influenza A virus [2], `CC(=O)N[C@H]1[C@H]([C@H](O)[C@H](O)CO)OC(C(=O)O)=C[C@@H]1NC(=N)N` [ZANAMIVIR] yielded an EC50 of 1220 nM.

What is called EC50 is the concentration at which the effect is half-maximal. A higher EC50 goes with a less potent agent.
